{"source": "patent US11633458B2", "about": "“Compositions and methods for treating melanoma” (University of Virginia Patent Foundation, priority 2013, dated 2023)", "key": {"[1]": {"tested_on": "melanoma cell lines VMM1, DM13, DM93 & VMM39", "assay": "Gene expression profiling (gene array) of melanoma cell lines after IFNγ or TLR2/6 agonist + IFNγ", "format": "cell-based, human", "details": "Vs No treatment; Anova p≤0.005, matched comparisons", "method": "To assess global effects of TLR2/6 agonists and IFNγ stimulation on melanoma, gene expression profiling of melanoma cell lines was performed."}, "[2]": {"tested_on": "cells from freshly resected human melanoma metastases", "assay": "CXCL10 production by cells of freshly resected melanoma metastases, flow cytometry", "format": "cell-based", "details": "patients 1-3 (FIG. 6A)", "text": "FIGS. 6A-6E. Patient melanomas generate CXCL10 in response to TLR2/6 agonist and IFNγ. […] Cell subsets were defined as: melanoma (CD45^negS100^+), endothelial (S100^negCD45^negCD105^+), B-cell (CD20^+), DC (CD11c^+HLADR^+), macrophage (CD14^+), NK-cell (CD56^+) and T-cell (CD3^+). FIG. 6A. The percent of melanoma cells that are CXCL10^+ from patient 1 (top), patient 2 (middle) and patient 3 (bottom) tumors after stimulation with the indicated conditions (left panel). MFI for CXCL10 expression of melanoma cells from patient 1 melanoma (top) and patient 2 melanoma (middle) patient 3 melanoma (bottom) (right panel). FIG. 6B-FIG. 6D. […] Graph of CXCL10 measured by ELISA assay, cells are from patient 1 tumor.\nHaving observed production of CCL3 and CXCL10 by cultured human melanoma cell lines in vitro, we asked whether the same would be observed with melanoma cells isolated from fresh surgically-excised human metastases. TLR2 and TLR6 are expressed on some immune cell subsets (31; 32), thus we also assessed whether TLR2/6 agonists and IFNγ may impact CXCL10 production from immune cell subsets in patient tumor specimens. […] The percentage of live cells from tumor assessed by viability marker were approximately 60%, 50%, 70%, and 40% for patients 1-4 respectively (data not shown)."}, "[3]": {"tested_on": "cells from fresh surgically isolated melanoma metastases", "assay": "CXCL10 ELISA of supernatants of stimulated cells from fresh melanoma metastases", "format": "cell-based, human", "details": "patient 1 tumor (FIG. 6E)", "method": "Melanoma cell lines or cells from patient samples were stimulated with TLR agonists as described, but without GolgiStop. Media containing the cell-secreted chemokines were collected and centrifuged to remove cell debris. CXCL10 was measured using the BD OptEIA human IP-10 ELISA Set with BD OptEIA buffers (BD Biosciences)."}, "[4]": {"tested_on": "melanoma cell lines VMM1, DM13, DM93 and DM122", "assay": "Intracellular CXCL10 staining by flow cytometry after overnight stimulation with TLR agonists with or without IFNγ", "format": "cell-based, human", "details": "averaged across the four melanoma lines, flow cytometry (FIG. 2B)", "method": "(§1) Stained cells were collected on the FACSCalibur instrument (BD Biosciences) and analyzed with FlowJo 8.8.6 software (TreeStar, Ashland, Oreg.). Analyses were conducted on live cells (95%) as defined by forward and side-angle scatter. Gates were set based on isotype-matched (ISO) controls or fluorescence-minus-one (FMO) controls.\n(§2) These were used with or without rh-IFNγ (1000 IU/mL; PeproTech). After stimulation, cells were detached using Accutase.\n(§3) Cells were fixed and permeablilized using the BD Cytofix/Cytoperm kit and then stained with the indicated antibodies. Staining antibodies: CCL2-PE, CCL3-PE, CCL4-PE, CCL5-PE, CXCL10-PE (BD Pharmingen), CXCL9-PE, CXCL12-APC (R&D Systems), IgG1-PE, and IgG2α-PE (Caltag). Flow cytometric analyses were conducted as described."}, "[5]": {"tested_on": "21 melanoma cell lines", "assay": "TLR2 and TLR6 staining by flow cytometry with or without IFNγ", "format": "cell-based, human", "details": "IFNγ stimulation, data not shown", "method": "Melanoma cell lines were seeded into 6-well plates at 1×10^6 cells/well in RPMI and stimulated overnight in the presence or absence of recombinant human IFNγ (rh-IFNγ, 1000 IU/mL; PeproTech, Rocky Hill, N.J.). After stimulation, cells were detached using Accutase (Millipore, Billerica, Mass.), stained with indicated antibodies and fixed using Cytofix (BD Biosciences, San Jose, Calif.). Surface staining antibodies: TLR2-Alexa647, Streptavidin-PE (BD Pharmigen, San Jose, Calif.), TLR6-Biotin (eBioscience, San Diego, Calif.), TLR4-APC (R&D Systems, Minneapolis, Minn.). Intracellular staining: cells were fixed and permeabilized using the BD Cytofix/Cytoperm kit (BD Biosciences) and stained with appropriate antibodies: TLR7-CFS, IgG2α-CFS (R&D Systems), TLR3-PE, TLR9-APC (eBioscience), TLR8-Alexa488 (Dendritics, San Diego, Calif.), IgG1-PE, and IgG2α-PE (Caltag, Towcester, UK).\nas §1"}, "[6]": {"tested_on": "melanoma cell lines VMM1, DM13, DM93 and DM122", "assay": "Intracellular staining of chemokines CCL2-5, CXCL9, CXCL12 by flow cytometry after overnight TLR agonist stimulation with or without IFNγ", "format": "cell-based, human", "details": "TLR agonist alone", "method": "as §1, §2, §3"}, "[7]": {"tested_on": "DM13 cells", "assay": "TLR agonist dose response assay, CXCL10 producing cells by flow cytometry, constant IFNγ", "format": "cell-based, human", "details": "for effect on CXCL10 induction: in the presence of IFNγ, even at much higher concentrations than in prior experiments; for optimal concentration for CXCL10 production: constant concentration of IFNγ", "method": "FIGS. 3A-3D. […] Melanoma cells were analyzed for induced chemokine production after overnight stimulation with the indicated TLR agonists with (+) or without (−) IFNγ. FIG. 3A-FIG. 3B (12 panels/images each). […] Scale bars represent 100 μm. FIG. 3C. Graphic illustration of ELISA assays to detect CXCL10 from supernatants of stimulated melanoma cells DM13 (left) and VMM1 (right). FIG. 3D. TLR agonist dose response assay. […] Data are from 2 independent experiments.\nas §2, §3"}, "[8]": {"tested_on": "breast cancer cell lines", "assay": "CXCL10 production by breast cancer cell lines, flow cytometry", "format": "cell-based, human", "details": "n=4; printed 'LPS, PAM3CSK4, and MALP-2+IFNγ', +IFNγ may apply to all three", "protocol": "Breast cancer cells were stimulated with TLR agonists overnight alone or in combination with IFNγ (IFNγ stimulation indicated as +). CXCL10 production was assessed by flow cytometry from the indicated breast cancer cell lines (n=4)."}, "[9]": {"tested_on": "lung cancer cell lines", "assay": "CXCL10 production by lung cancer cell lines, flow cytometry", "format": "cell-based, human", "details": "lung cancer cell lines n=8 (FIG. 16)", "method": "FIG. 16 (line graph): Treatment of Lung Cancer cells with TLR1/2 agonists-TLR1/2 agonists can induce some CXCL10 production from lung cancer cell lines. Lung cancer cells were stimulated with TLR agonists overnight alone or in combination with IFNγ (IFNγ stimulation indicated as +). CXCL10 production was assessed by flow cytometry from the indicated lung cancer cell lines (n=8)."}}}
{"compound": "interferon gamma [IFNγ, recombinant human IFNγ (PeproTech), used at 1000 IU/mL]", "values": [{"measurement": "fold change of gene induction, CXCL9", "setting": "[1]", "result": 20.7, "unit": "fold change"}, {"measurement": "fold change of gene induction, CXCL10", "setting": "[1]", "result": 36.5, "unit": "fold change"}, {"measurement": "fold change of gene induction, GBP1", "setting": "[1]", "result": 50.6, "unit": "fold change"}, {"measurement": "fold change of gene induction, GBP4", "setting": "[1]", "result": 84.9, "unit": "fold change"}, {"measurement": "fold change of gene induction, IFI30", "setting": "[1]", "result": 14.4, "unit": "fold change"}, {"measurement": "fold change of gene induction, IFITM1", "setting": "[1]", "result": 14.4, "unit": "fold change"}, {"measurement": "fold change of gene induction, IRF1", "setting": "[1]", "result": 30.2, "unit": "fold change"}, {"measurement": "fold change of gene induction, OAS2", "setting": "[1]", "result": 24.1, "unit": "fold change"}, {"measurement": "fold change of gene induction, TNFSF10", "setting": "[1]", "result": 25.7, "unit": "fold change"}, {"measurement": "fold change of gene induction, XAF1", "setting": "[1]", "result": 22.8, "unit": "fold change"}, {"measurement": "CXCL10 production by melanoma cells (S100+CD45neg), percentage of CXCL10+ cells and MFI", "setting": "[2]", "result": "produced CXCL10"}, {"measurement": "CXCL10 in supernatants", "setting": "[3]", "result": "~400", "unit": "pg/mL"}, {"measurement": "percent of cells producing CXCL10", "setting": "[4]", "result": 7, "unit": "%"}, {"measurement": "expression of TLR2 or TLR6", "setting": "[5]", "result": "neither was impacted"}]}
{"compound": "poly-ICLC", "values": [{"measurement": "chemokine production", "setting": "[6]", "result": "little chemokine production"}, {"measurement": "effect on CXCL10 induction", "setting": "[7]", "result": "little effect"}]}
{"compound": "CC(C)Cn1cnc2c(N)nc3ccccc3c21", "note": "[imiquimod]", "values": [{"measurement": "chemokine production", "setting": "[6]", "result": "little chemokine production"}, {"measurement": "effect on CXCL10 induction", "setting": "[7]", "result": "little effect"}]}
{"compound": "lipopolysaccharide [LPS]", "values": [{"measurement": "cell lines with induced CXCL10 production", "setting": "[8]", "result": "2/4"}, {"measurement": "chemokine production", "setting": "[6]", "result": "little chemokine production"}, {"measurement": "concentration inducing CXCL10 at levels comparable to MALP-2 or FSL-1 and IFNγ", "setting": "[7]; +IFNγ (FIG. 3D)", "result": 100, "unit": "µg/mL"}, {"measurement": "concentration inducing comparable levels of CXCL10", "setting": "[7]; in combination with IFNγ, compared with TLR2/6 agonists", "result": "≥ 100", "unit": "µg"}]}
{"compound": "fibroblast-stimulating lipopeptide-1 [FSL-1]", "values": [{"measurement": "chemokine production", "setting": "[6]", "result": "little chemokine production"}, {"measurement": "optimal concentration for CXCL10 production", "setting": "[7]", "result": 5, "unit": "µg/mL"}]}
{"compound": "macrophage-activating lipopeptide 2 [MALP-2]", "values": [{"measurement": "chemokine production", "setting": "[6]", "result": "little chemokine production"}, {"measurement": "optimal concentration for CXCL10 production", "setting": "[7]", "result": 0.1, "unit": "µg/mL"}]}
{"compound": "Pam3CysSerLys4 [Pam3CSK4]", "values": [{"measurement": "cell lines with induced CXCL10 production", "setting": "[8]", "result": "2/4"}, {"measurement": "CXCL10 production", "setting": "[9]", "result": "some CXCL10 production can be induced"}]}
